Laboratory results taken from paper PMC11881343, “Safety of ilunocitinib tablets (Zenrelia™) after once daily oral administration in dogs” (BMC Veterinary Research, 2025).

What was measured:
dogs = details: field conditions; cited from earlier work
healthy Beagle dogs [1] = assay: 6-month safety study: clinical pathology (hematology, coagulation, clinical chemistry, C-reactive protein, urinalysis); format: in vivo, dog; details: for MCHC, effect compared to 0X / Hb (hemoglobin), effect compared to 0X / Total Protein, effect compared to 0X / MCH, effect compared to 0X / HCT (hematocrit), effect compared to 0X / RBC, effect compared to 0X: all study days; for Hb (hemoglobin), effect compared to 0X / HCT (hematocrit), effect compared to 0X / RBC, effect compared to 0X: pooled sexes; for Total Protein, effect compared to 0X: significant in pooled by sex, males (2X, 3X, 5X) females (3X, 5X); for Albumin, effect compared to 0X: beginning on study day 57; for Eosinophils, effect compared to 0X: study days 29–183, females only; for Fibrinogen, effect compared to 0X: study days 57–183, association with interdigital cysts
Procedure: Blood samples were collected from the jugular vein for the evaluation of hematology, clinical chemistry and coagulation variables at pre-test, and on study days 29, 57, 85, 113, 141, 169 and 183. The complete panel of clinical pathology parameters (hematology, blood chemistry and urinalysis) according to VICH Guideline 43 [10] are listed in Table 1. Urine samples were collected using steel pans placed under the cages for at least 16 h at the same timepoints.
(§1) Endpoints measured multiple times post-treatment that included a pre-treatment measurement (Serum chemistry, C-reactive protein, coagulation, hematology, urinalysis, body weight, body weight changes and food consumption) were analyzed using repeated measures analysis of covariance (RMANCOVA) with ‘treatment’, ‘time’, and ‘sex’; the two-way interactions ‘treatment by time’, ‘treatment by sex’, and ‘sex by time’; the three-way interaction ‘treatment by time by sex’ and a covariate all as fixed effects. The last available pre-treatment value was used as the covariate.
If the interaction terms were significant (P ≤ 0.10 level for two-way interactions and P ≤ 0.05 for the three-way interaction), treated groups were compared to the control either within each sex (treatment by sex significant), within each time point (treatment by time significant) or main effect only (neither treatment by sex nor treatment by time significant).

[2] = dog, in vivo
Procedure: (§2) Samples were collected at pre-dose and at 0.5, 1, 2, 5, 8 and 24 h post-dosing on the day of the first and last dose (study days 1 and 182) and at pre-dose and at 1 and 24 h post-dosing at study day 85. Blood samples were collected in tubes containing K2 EDTA. Blood was processed to plasma within one hour of collection and plasma samples were stored frozen at -20 °C until analyzed.
(§3) The bioanalytical data were processed as individual concentration vs. time profiles using a non-compartmental analysis (NCA). Calculations were performed with the software Phoenix WinNonlin (version 8.3; Certara, USA). Tmax and Cmax were derived from observed values. AUCs were calculated using the Linear Up Log Down method. In addition, T1/2 was calculated using the best fit method and dose, time and sex effects were evaluated based on Cmax and AUClast ratios.

healthy Beagle dogs [3] = details: dog, in vivo
Procedure: (§4) At study termination (study day 183), the dogs were humanely euthanized by an intravenous injection of pentobarbital sodium/phenytoin solution under sedation with 6.6–13.2 mg/kg Telazol® (tiletamine/zolazepam) subcutaneous injection. Gross and microscopic examinations were carried out on all animals by a board-certified veterinary pathologist.

[4] = 6-month safety study: body weights and food consumption; format: in vivo, dog
Procedure: as §1

healthy Beagle dogs [5] = assay: 6-month safety study: organ weights, gross and microscopic examinations; details: 5X group
Procedure: as §4

[6] = Plasma pharmacokinetics of ilunocitinib (LC-MS/MS, non-compartmental analysis)
Procedure: as §2, §3

[7] = system: leukocyte subsets (T, Th, Tc, B lymphocytes, monocytes); assay: Peripheral blood immunophenotyping by flow cytometry; format: in vivo, dog; details: either sex at any dose level
Excerpt: Whole blood samples were also collected from the jugular vein for the evaluation of the leukocyte subsets and phenotypes on study days − 16 and − 8, and on study days 29, 57, 85, 113, 141, 169 and 183. The immunophenotype profiling by flow cytometry included total T lymphocytes (CD45 + CD5 + or CD5 + T cells), Helper T lymphocytes (CD45 + CD5 + CD4 + or CD4 + Th cells), Cytotoxic T lymphocytes (CD45 + CD5 + CD8 + or CD8 + Tc cells), B lymphocytes (CD45 + CD5- CD21 + or CD21 + B cells) and monocytes (CD45 + CD14+).
For immunophenotyping/peripheral blood leukocytes, a generalized linear mixed model for repeated measures analysis of variance (mixed model) was conducted. For each endpoint, the model tested for the effects of treatment, time, sex and all two and three-way interactions. The last available pre-treatment value was included in the model as a covariate. The evaluation proceeded as described for RMANCOVA.

[8] = males at 2X, 3X, and 5X and females at 5X, beginning study day 57, 85, or 113 through study day 183
[9] = 1X group (0.8 mg/kg/day, 6 months)
[10] = 2X group (1.6 mg/kg/day, 6 months)
[11] = 3X group (2.4 mg/kg/day, 6 months)
[12] = 5X group (4.0 mg/kg/day, 6 months)

Compound: N#CCC1(n2cc(-c3ncnc4[nH]ccc34)cn2)CN(S(=O)(=O)C2CC2)C1 [ilunocitinib]
- Weight gain in dogs under field conditions (dogs): in very few cases
- red cell parameters (healthy Beagle dogs [1]; 1X group): stayed within the reference range
- MCHC, effect compared to 0X (healthy Beagle dogs [1]; 2X (1.6 mg/kg/day)): minimally lower and ↓
- Hb (hemoglobin), effect compared to 0X (healthy Beagle dogs [1]; 2X (1.6 mg/kg/day)): minimally lowered and ↓
- Total Protein, effect compared to 0X (healthy Beagle dogs [1]; 2X (1.6 mg/kg/day)): ↑
- MCH, effect compared to 0X (healthy Beagle dogs [1]; 3X (2.4 mg/kg/day)): minimally lower and ↓
- MCHC, effect compared to 0X (healthy Beagle dogs [1]; 3X (2.4 mg/kg/day)): minimally lower and ↓
- HCT (hematocrit), effect compared to 0X (healthy Beagle dogs [1]; 3X (2.4 mg/kg/day)): ↓
- Hb (hemoglobin), effect compared to 0X (healthy Beagle dogs [1]; 3X (2.4 mg/kg/day)): minimally lowered and ↓
- RBC, effect compared to 0X (healthy Beagle dogs [1]; 3X (2.4 mg/kg/day)): ↓
- Total Protein, effect compared to 0X (healthy Beagle dogs [1]; 3X (2.4 mg/kg/day)): ↑
- Albumin, effect compared to 0X (healthy Beagle dogs [1]; 3X (2.4 mg/kg/day)): minimally lower and ↓
- Total Protein, effect compared to 0X (time by treatment interaction) (healthy Beagle dogs [1]; 3X (2.4 mg/kg/day), study day 113): minimally higher means and ↑
- Eosinophils, effect compared to 0X (healthy Beagle dogs [1]; 3X (2.4 mg/kg/day)): ↓
- Fibrinogen, effect compared to 0X (healthy Beagle dogs [1]; 3X (2.4 mg/kg/day)): marginally elevated concentrations and ↑
- MCH, effect compared to 0X (healthy Beagle dogs [1]; 5X (4.0 mg/kg/day)): minimally lower and ↓
- MCHC, effect compared to 0X (healthy Beagle dogs [1]; 5X (4.0 mg/kg/day)): minimally lower and ↓
- HCT (hematocrit), effect compared to 0X (healthy Beagle dogs [1]; 5X (4.0 mg/kg/day)): ↓
- Hb (hemoglobin), effect compared to 0X (healthy Beagle dogs [1]; 5X (4.0 mg/kg/day)): minimally lowered and ↓
- RBC, effect compared to 0X (healthy Beagle dogs [1]; 5X (4.0 mg/kg/day)): ↓
- Total Protein, effect compared to 0X (healthy Beagle dogs [1]; 5X (4.0 mg/kg/day)): ↑
- Albumin, effect compared to 0X (healthy Beagle dogs [1]; 5X (4.0 mg/kg/day)): minimally lower and ↓
- Eosinophils, effect compared to 0X (healthy Beagle dogs [1]; 5X (4.0 mg/kg/day)): ↓
- Fibrinogen, effect compared to 0X (healthy Beagle dogs [1]; 5X (4.0 mg/kg/day)): marginally elevated concentrations and ↑
- Total Protein, effect compared to 0X (time by treatment interaction) (healthy Beagle dogs [1]; 5X (4.0 mg/kg/day), study days 85,113,141): minimally higher means and ↑
- myeloid: erythroid ratios (healthy Beagle dogs [1]; Two dogs in the 5X group): minimally lower
- effects on lymphocytes, monocytes, basophils and reticulocytes (healthy Beagle dogs [1]; all dose levels): no treatment-related effects
- alkaline phosphatase, alanine aminotransferase, aspartate aminotransferase, triglycerides, plasma creatinine and urea levels or any other clinical chemistry parameters (healthy Beagle dogs [1]; all treatment groups, within normal ranges): No changes
- effects on urinalysis endpoints (healthy Beagle dogs [1]; either sex at any dose level): no test article-related effects
- C-reactive protein (CRP) levels (healthy Beagle dogs [1]; elevated doses, dogs with visible skin disease): higher
- Total protein values in males vs control (healthy Beagle dogs [1]; males at 2X, 3X, and 5X): significantly (p = 0.0437) higher
- Mean globulin concentrations vs control means (healthy Beagle dogs [1]; [8]): minimally higher
- mean albumin/globulin ratios vs control means (healthy Beagle dogs [1]; [8]): minimally to mildly lower
- prothrombin time and activated partial thromboplastin time (healthy Beagle dogs [1]; throughout the study, all dose levels): remained in the reference range
- half-life [2]: approximately 3 h
- increase of exposure with dose [2]: close to dose proportional
- Microscopic findings across all groups (healthy Beagle dogs [3]): minimal and largely consistent with background pathology
- combined adrenal gland weight vs controls (healthy Beagle dogs [3]): increased combined adrenal gland weight
- cutaneous lesions (microscopic), animals affected (healthy Beagle dogs [3]): 5 out of 8
- enlarged thyroid/parathyroid glands (incidental macroscopic finding) (healthy Beagle dogs [3]): single case of enlarged thyroid/parathyroid glands
- focal lesions on the lungs (incidental macroscopic finding) (healthy Beagle dogs [3]): two focal lesions on the lungs
- Body weight gain [4, 9]: 0.06 ± 0.02 kg
- mean body weight (± standard error) throughout the study [4, 9]: 10.30 ± 0.20 kg
- body weight, treatment effect vs control ([4]; 1X, 3X and 5X groups, main effect of treatment p = 0.0026): statistically significant increases
- Body weight gain [4, 10]: 0.03 ± 0.02 kg
- mean body weight (± standard error) throughout the study [4, 10]: 9.76 ± 0.20 kg
- body weight change, treatment effect vs control ([4]; 3X and 5X, main effect of treatment p = 0.0952): statistically significant increases
- Body weight gain [4, 11]: 0.06 ± 0.02 kg
- mean body weight (± standard error) throughout the study [4, 11]: 10.31 ± 0.20 kg
- Body weight gain [4, 12]: 0.06 ± 0.02 kg
- mean body weight (± standard error) throughout the study [4, 12]: 10.46 ± 0.20 kg
- weekly averaged daily food consumption, treatment effect ([4]; all dose groups): statistically significant (p = 0.0872) time by treatment interaction
- Prostate weight, prostate weight as a percent of body weight and ratio of prostate weight to brain weight vs controls (healthy Beagle dogs [5]): significantly decreased
- AUC ratio, study day 182 vs day 1 ([6]; group 2 (1X: 0.8 mg/kg)): 1.2
- AUC ratio, study day 182 vs day 1 ([6]; group 3 (2X: 1.6 mg/kg)): 1.4
- AUC ratio, study day 182 vs day 1 ([6]; group 4 (3X: 2.4 mg/kg)): 1.6
- AUC ratio, study day 182 vs day 1 ([6]; group 5 (5X: 4.0 mg/kg)): 1.2
- effects on leukocyte analysis (immunophenotyping) parameters [7]: no test article-related effects
